Consider three substances from US5147856A, “Method for inhibiting blood vessel blockage using octapeptide compositions” (Societe de Conseils de Recherches et d'Applications …, priority 1988, dated 1992).

Square brackets hold non-standard residues; d marks the D form. Mpa = O=C(O)CCS

For assay [1], the system named is myointimal proliferation of the carotid artery. Put plainly: Air-drying injury of the rat carotid artery, intimal/media ratio (Example 2). The assay is classed as in vivo. The following applies: for Intimal/Media Ratio: from two days prior to injury and five days postinjury, sacrifice day 15, mean ± SE; for Inhibition of myointimal (smooth muscle cell) proliferation of the carotid artery, in words: administered from two days prior to injury, at the doses used (20 and 50 μg/kg/day). On the procedure:
Male Sprague-Dawley rats, weighing […], obtained from Charles River were kept under controlled lighting conditions and fed rat chow and water ad libitum. Under sodium pentobarbital anesthesia the intima of the right carotid artery was subjected to an air-drying injury described by Fishman et al, Lab Invest., 32, 339 (1975). The procedure causes intimal hyperplasia that largely consists of proliferating intimal smooth muscle cells. In this model approximately 4 cm of the vessel is isolated and drained of blood. Air (20 ml/min) is blown through a 30 gauge needle for 5 min whereafter blood flow is reestablished. The contralateral carotid artery was also exposed but not air-dried. The rats were sacrificed 15 days later.
The experiment consisted of a control group and ten treatment groups. The somatostatin analogs used were hepta- or octapeptides, namely BIM 23014 (Angiopeptin), BIM 23012, BIM 23027, BIM 23030 and BIM 23034. […] The animals were pretreated two days prior to the procedure and for a further five days following the endothelial injury. Two additional groups of animals were added in order to study whether Angiopeptin (20 μg/kg/day and 50 μg/kg/day) administered 30 min prior to the endothelial injury and for a further five days would protect against the myointimal proliferation.
The animals were sacrificed on day 15 following the injury by exsanguination. The vascular system was flushed with normal saline and perfusion-fixed at 80 mmHg with 10% formalin. The carotid arteries were subsequently fixed, embedded and sectioned for light microscopy and morphometric analysis. The maximal intimal/media ratio is the distance from the lumen to the internal elastic lamina and the distance from the internal elastic lamina to the external elastic lamina. The distances were determined in each vessel using a digitizing system attached to a light microscope. The determinations were performed on three different cross sections of the vessel and each section was measured three times. The mean was calculated for each vessel. Differences between the groups were evaluated using Student's unpaired t-test.

The next assay has as its system growth hormone release. The following applies: cited from earlier work; for Potency for growth hormone suppression in vivo, relative to somatostatin 14: rats, compared to somatostatin 14 (=1).
Setting [2] is: 20 μg/kg/day s.c. in two divided doses.
Setting [3] is: 50 μg/kg/day s.c. in two divided doses.

On to “D-Trp--Lys--Abu--Phe--Me--Ala--Tyr [BIM 23027]”, for which the “Intimal/Media Ratio” value in assay [1] (setting [2]) was 1.6 ± 0.2; in assay [1] (setting [3]), 1.5 ± 0.2. For the same substance, the “Inhibition of myointimal (smooth muscle cell) proliferation of the carotid artery, in words” value (“Inhibition of myointimal” for short) in assay [1] was “did not inhibit”. Also, the “Inhibition of growth hormone release, in words” value with growth hormone release (in vivo) is on record as “most potent”. In the assay with growth hormone release, the “Potency for growth hormone suppression in vivo, relative to somatostatin 14” value (shortened to “Potency … relative to somatostatin 14”) is 100.
With “[Mpa]Y[dW]KVCF-NH2 (cysteine pairing not given here) [BIM 23030]”, the “Intimal/Media Ratio” value in assay [1] (setting [2]) was 1.6 ± 0.2; in assay [1] (setting [3]), 2.2 ± 0.5. The “Inhibition of myointimal” value in assay [1] is “did not inhibit”. In addition, in the assay on growth hormone release, the “Potency … relative to somatostatin 14” value was 0.5.
Consider “D-Phe--Cys--Phe-D-Trp--Lys--Thr--Cys--Thr--NH2 [BIM 23012]”, for which the “Intimal/Media Ratio” value in assay [1] (setting [2]) is reported as 2.3 ± 0.4; in assay [1] (setting [3]) it was 1.6 ± 0.4. Also, the “Inhibition of myointimal” value in assay [1] is listed as “did not inhibit”. For the same substance, the “Potency … relative to somatostatin 14” value in the assay on growth hormone release is 62.
